Source: the supplement of paper PMC11061612

Assays:
Experiment in all cases: combination Emax (second highest fraction inhibited in the dose matrix, 72 h); higher = more inhibition; extreme values may be limits of the assay
[1] = system: SW626 (Colorectal Carcinoma)
Procedure, shortened: (§1)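 After 24 hours at 37°C and 5% CO2 in 1536-well plates, cells in DMEM/F12 or RPMI plus 10% FBS received two-drug dose matrices for 72 hours. Viability came from CellTiter-Glo 2.0 luminescence and was scaled as inhibition, anchored at 0 by vehicle wells and at 1 by blank wells. Combination Emax is taken as the second-highest inhibition in the matrix, and Bliss excess as the observed combination effect less EA + EB − EA·EB, with EA and EB the single-agent effects.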

NCI-H2461 (Mesothelioma) = system: NCI-H2461 (Mesothelioma)
Procedure, shortened: as §1

Mewo (Melanoma) = system: Mewo (Melanoma)
Procedure, shortened: as §1

[2] = system: SU-DHL-6 (B-Cell Non-Hodgkin's Lymphoma)
Procedure, shortened: as §1

[3] = system: LU-139 (Small Cell Lung Carcinoma)
Procedure, shortened: as §1

SH-4 (Melanoma) = system: SH-4 (Melanoma)
Procedure, shortened: as §1

[4] = system: KARPAS-231 (B-Cell Non-Hodgkin's Lymphoma)
Procedure, shortened: as §1

[5] = system: RKO (Colorectal Carcinoma)
Procedure, shortened: as §1

[6] = system: CTB-1 (B-Cell Non-Hodgkin's Lymphoma)
Procedure, shortened: as §1

[7] = system: TE-4 (Esophageal Squamous Cell Carcinoma)
Procedure, shortened: as §1

[8] = system: PCI-30 (Head and Neck Carcinoma)
Procedure, shortened: as §1

[9] = system: 8305C (Thyroid Gland Carcinoma)
Procedure, shortened: as §1

[10] = system: 639-V (Bladder Carcinoma)
Procedure, shortened: as §1

[11] = system: SUP-T1 (T-Lymphoblastic Leukemia)
Procedure, shortened: as §1

[12] = system: Hs-633T (Other Solid Carcinomas)
Procedure, shortened: as §1

[13] = system: CAPAN-1 (Pancreatic Carcinoma)
Procedure, shortened: as §1

COLO-829 (Melanoma) = system: COLO-829 (Melanoma)
Procedure, shortened: as §1

[14] = system: NCI-H747 (Colorectal Carcinoma)
Procedure, shortened: as §1

[15] = system: MHH-PREB-1 (B-Cell Non-Hodgkin's Lymphoma)
Procedure, shortened: as §1

[16] = system: SK-OV-3 (Ovarian Carcinoma)
Procedure, shortened: as §1

Structure (SMILES) | combination Emax [1] | combination Emax (NCI-H2461 (Mesothelioma)) | combination Emax (Mewo (Melanoma)) | combination Emax [2] | combination Emax [3] | combination Emax (SH-4 (Melanoma)) | combination Emax [4] | combination Emax [5] | combination Emax [6] | combination Emax [7] | combination Emax [8] | combination Emax [9] | combination Emax [10] | combination Emax [11] | combination Emax [12] | combination Emax [13] | combination Emax (COLO-829 (Melanoma)) | combination Emax [14] | combination Emax [15] | combination Emax [16]
CC1(C)CCC(CN2CCN(c3ccc(C(=O)NS(=O)(=O)c4ccc(NCC5CCOCC5)c([N+](=O)[O-])c4)c(Oc4cnc5[nH]ccc5c4)c3)CC2)=C(c2ccc(Cl)cc2)C1 [Venetoclax] + C1CN(CCC1(C(=O)N[C@@H](CCO)C2=CC=C(C=C2)Cl)N)C3=NC=NC4=C3C=CN4 [Capivasertib] (first compound max 1 µM, 7x7, partner max 3 µM) | 0.161 | 0.528 | 0.533 | 0.995 | 0.31 | 0.208 | 0.796 | 0.36 | 0.429 | 0.564 | 0.252 | 0.387 | 0.283 | 0.757 | 0.177 | 0.184 | 0.16 | 0.441 | 0.176 | 0.353
Cc1c2c(nn1C)CSCc1cc(n(C)n1)CSc1cc(c3ccccc3c1)OCCCc1c(C(=O)O)n(C)c3c-2c(Cl)ccc13 [AZD5991] + CN(C)CCCOc1ccc(-c2ccc3ncc4c(c3c2)n(C2CCOCC2)c(=O)n4C)cn1 [AZD0156] (first compound max 1 µM, 7x7, partner max 1 µM) | 0.223 | 0.307 | 0.225 | 1 | 0.21 | 0.316 | 1 | 0.225 | 0.34 | 0.481 | 0.232 | 0.325 | 0.239 | 0.371 | 0.276 | 0.252 | 0.118 | 0.414 |  | 0.342
CCc1c2c(nc3ccc(O)cc13)-c1cc3c(c(=O)n1C2)COC(=O)[C@]3(O)CC [SN-38] + O=C(c1cc(Cc2n[nH]c(=O)c3ccccc23)ccc1F)N1CCN(C(=O)C2CC2)CC1 [Olaparib] (first compound max 0.3 µM, 7x7, partner max 10 µM) | 0.559 | 0.639 | 0.338 | 1 | 0.767 | 0.48 | 1 | 0.86 | 0.837 | 0.402 | 0.727 | 0.627 | 1 | 0.84 | 0.842 | 0.818 | 0.662 | 0.542 |  | 0.535
CN(CCO)CC[C@H](CSc1ccccc1)Nc1ccc(S(=O)(=O)NC(=O)c2ccc(N3CCC([C@@H](O)c4ccccc4-c4ccc(Cl)cc4)CC3)cc2)cc1S(=O)(=O)C(F)(F)F [AZD4320] + C=CCn1c(=O)c2cnc(Nc3ccc(N4CCN(C)CC4)cc3)nc2n1-c1cccc(C(C)(C)O)n1 [AZD1775] (first compound max 1 µM, partner max 1 µM) | 0.748 | 0.782 | 0.548 | 1 | 0.927 | 0.5 | 1 | 0.617 | 0.862 | 0.466 | 0.323 | 0.7 | 0.377 | 0.909 | 0.856 | 0.732 | 0.265 | 0.446 |  | 0.628
COc1nnc2ccc(N3CCC(c4ccc(OCCN5CCN(C)C(=O)[C@H]5C)cc4)CC3)nn12 [AZD5153] + CC1(C)CCC(CN2CCN(c3ccc(C(=O)NS(=O)(=O)c4ccc(NCC5CCOCC5)c([N+](=O)[O-])c4)c(Oc4cnc5[nH]ccc5c4)c3)CC2)=C(c2ccc(Cl)cc2)C1 [Venetoclax] (first compound max 1 µM, 7x7, partner max 1 µM) | 0.689 | 0.517 | 0.563 | 1 | 0.948 | 0.607 | 1 | 0.757 |  | 0.27 | 0.344 | 0.524 | 0.582 | 0.745 | 0.564 | 0.335 | 0.226 | 0.702 | 0.481 | 0.383
NC1(C(=O)N[C@@H](CCO)c2ccc(Cl)cc2)CCN(c2ncnc3[nH]ccc23)CC1 [Capivasertib] + Cn1cnc2c(F)c(Nc3ccc(Br)cc3Cl)c(C(=O)NOCCO)cc21 [Selumetinib] (first compound max 10 µM, 7x7, partner max 10 µM) | 0.65 | 0.569 | 0.589 | 1 | 0.0716 | 0.909 | 0.0035 | 0.876 |  | 0.961 | 0.342 | 0.527 | 0.366 | 0.682 | 0.633 | 0.476 | 0.818 | 0.909 | 0.205 | 0.473
CS(=O)(=O)CCNCc1ccc(-c2ccc3ncnc(Nc4ccc(OCc5cccc(F)c5)c(Cl)c4)c3c2)o1 [Lapatinib] + C[C@@H](Oc1cc(-c2cnn(C3CCNCC3)c2)cnc1N)c1c(Cl)ccc(F)c1Cl [Crizotinib] (first compound max 10 µM, 7x7, partner max 10 µM) | 0.626 | 0.91 | 0.537 | 0.983 | 0.936 | 0.883 | 0.57 | 0.942 |  | 1 | 0.366 | 0.94 | 0.853 | 0.875 | 0.934 | 0.527 | 0.711 | 0.926 | 0.96 | 0.776
